From patent publication US20070033677A1, “Plant sHSP gene bidirectional promoter and uses thereof” (National Taiwan University, priority 2005, published 2007)

Columns and labels:
[1] = test system: Oshsp17.3 promoter; assay: Transient expression GUS activity assay, Oshsp17.3 promoter::GUS construct bombarded to rice coleoptiles; type: cell-based, Rice (Oryza sativa L. cv. Tainung No. 67); settings: 5 mM Aze, 4 hours treatment; GUS normalized against luciferase internal control; FIG. 3A
Protocol: (§1) The coleoptile of a etiolated rice seedling was cut from embryonic root and positioned on the middle of a 10-cm Petri dish containing MS salts supplemented with 0.6% (w/v) agarose and 3% (w/v) sucrose. The mixture (in a 1:1 molar ratio) of a test DNA construct and a maize ubiquitin-luciferase internal control construct were coated onto the gold particles as follows: under continuous vortexing, the following were added in order to each […] of 3 mg gold particles (Shen et al., 1996): 5 μL of DNA (1 μg DNA), 10 μL of 2.5 M CaCl2, and 4 μL of 0.1 M spermidine (free-based, tissue-culture grade). Gold microcarriers (1.6-μm particle size, 30 mg) in a microcentrifuge tube were vortexed with […] 70% (v/v) ethanol for 3˜5 minutes and kept till precipitation for about 15 minutes. Then, after centrifuging for 5 seconds, the supernatant was discarded and washed three times with 1 ml of sterile de-ionized water. The gold particles were resuspended in 500 μL 50% (w/v) glycerol, and then dispensed in 50-μL aliquots (3 mg/50 μL) kept in −20° C. The gold particles coated with DNA were pelleted in an bench-top Eppendorf centrifuge at maximum speed for 5 seconds, discarded the supernatant, washed once with 70% (v/v) ethanol following by absolute ethanol, and resuspended in 20 μL absolute ethanol. […]

[2] = test system: Oshsp18.0 promoter; assay: Transient expression GUS activity assay, Oshsp18.0 promoter::GUS construct bombarded to rice coleoptiles; type: cell-based, Rice (Oryza sativa L. cv. Tainung No. 67); settings: 5 mM Aze, 4 hours treatment; GUS normalized against luciferase internal control; FIG. 3A
Protocol: as §1

[3] = test system: bidirectional promoter of SEQ ID NO:5; settings: 5% ethanol treatment; control coleoptiles under 28° C.; FIG. 3B
Protocol: as §1

SMILES | induction of promoter (normalized GUS activity) [1] | induction of promoter (normalized GUS activity) [2] | expression of reporter gene (GUS staining) [3]
O=C(O)C1CCN1 (stereo not drawn) [Aze] | at least 7 fold | at least 7 fold | –
CCO [ethanol] | – | – | much more amount of reporter gene
